Data: patent US20230365589A1, “NOVEL AMINE DERIVATIVES” (Sumitomo Pharma Co., Ltd., priority 2020, published 2023)

Key:
Type in all cases: biochemical
DYRK2 = molecular target: T1, DYRK2 (Homo sapiens, UniProt Q92630); assay: Inhibition test on activity of DYRK family, mobility shift assay (MSA): DYRK2; details: MSA, FITC-labeled DYRKtide peptide, ATP 40 μM; read-out: Inhibitory activity DYRK 2 (IC50 class)
T1 construct: purchased Carna Biosciences, Inc. 04-132
T1 sequence (Q92630 74-601 limits assumed): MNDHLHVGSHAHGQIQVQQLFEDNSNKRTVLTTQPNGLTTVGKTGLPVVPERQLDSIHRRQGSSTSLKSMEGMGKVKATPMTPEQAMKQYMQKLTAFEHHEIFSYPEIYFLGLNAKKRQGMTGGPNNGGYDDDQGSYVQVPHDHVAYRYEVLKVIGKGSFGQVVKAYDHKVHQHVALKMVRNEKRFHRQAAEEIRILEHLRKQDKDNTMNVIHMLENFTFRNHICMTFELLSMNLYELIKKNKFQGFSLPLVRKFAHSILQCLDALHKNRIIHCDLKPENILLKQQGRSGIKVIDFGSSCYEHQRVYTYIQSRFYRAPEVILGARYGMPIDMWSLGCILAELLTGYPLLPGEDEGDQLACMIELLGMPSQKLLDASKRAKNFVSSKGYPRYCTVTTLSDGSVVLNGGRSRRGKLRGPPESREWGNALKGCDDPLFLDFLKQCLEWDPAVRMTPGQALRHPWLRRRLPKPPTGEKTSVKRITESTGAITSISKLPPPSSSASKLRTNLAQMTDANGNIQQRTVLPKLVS
Procedure, shortened: (§1)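 Mobility-shift readout of FITC-DYRKtide phosphorylation in 20 mM HEPES pH 7.5. The substrate mix held 4 µM peptide, 20 mM MgCl2 and ATP at 100 (1A), 200 (1B), 40 (2) or 20 µM (3). Reaction 1 h at room temperature; IC50 from regression of P/(P+S)-based inhibition vs log concentration.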

DYRK1A = molecular target: T2, DYRK1A (Homo sapiens, UniProt Q13627); assay: Inhibition test on activity of DYRK family, mobility shift assay (MSA): DYRK1A; details: MSA, FITC-labeled DYRKtide peptide, ATP 100 μM; read-out: Inhibitory activity DYRK 1A (IC50 class)
T2 construct: purchased Carna Biosciences, Inc. 04-130
Procedure, shortened: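 Mobility shift assay with recombinant DYRK1A (0.2 ng/μL enzyme solution), FITC-DYRKtide substrate (4 μM in substrate mix), 100 μM ATP in substrate mix, HEPES pH 7.5 buffer with MgCl2; 1 h at room temperature. Phosphorylated vs unphosphorylated peptide peaks quantified; IC50 from regression of inhibition rate against log concentration.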

DYRK1B = molecular target: T3, DYRK1B (Homo sapiens, UniProt Q9Y463); assay: Inhibition test on activity of DYRK family, mobility shift assay (MSA): DYRK1B; details: MSA, FITC-labeled DYRKtide peptide, ATP 200 μM; read-out: Inhibitory activity DYRK 1B (IC50 class)
T3 construct: purchased Carna Biosciences, Inc. 04-131
Procedure: [Inhibition Test on Activity of DYRK Family (DYRK1A, DYRK1B, DYRK2, and DYRK3)]
The kinase activity was measured by mobility shift assay (MSA) method using QuickScout Screening Assist™ MSA (commercially available kit manufactured by Carna Biosciences, Inc.). The substrate of the kinase reaction used was an FITC-labeled DYRKtide peptide included in the kit. An assay buffer [20 mM HEPES, 0.01% Triton X-100™, 2 mM dithiothreitol, pH 7.5]was used to create a substrate mixture solution with a substrate (4 μM), MgCl2(20 mM), and ATP (DYRK1A: 100 μM; DYRK1B: 200 μM; DYRK2: 40 μM; and DYRK3: 20 μM). In addition, kinases (DYRK1A: manufactured by Carna Biosciences, Inc., Cat. No. 04-130; DYRK1B: manufactured by Carna Biosciences, Inc., Cat. No. 04-131; DYRK2; manufactured by Carna Biosciences, Inc., Cat. No. 04-132; and DYRK3; manufactured by Carna Biosciences, Inc., Cat. No. 04-133) were diluted with the assay buffer to prepare enzyme solutions (DYRK1A: 0.2 ng/μL; DYRK1B: 0.08 ng/μL; DYRK2: 0.04 ng/μL; and DYRK3: 0.25 ng/μL). The 10 mM solution of the test compound in DMSO was further diluted with DMSO to 10 levels of the concentration (0.00003 mM, 0.0001 mM, 0.0003 mM, 0.001 mM, 0.003 mM, 0.01 mM, 0.03 mM, 0.1 mM, 0.3 mM, and 1 mM), each of which was subjected to 25-fold dilution with the assay buffer to obtain a drug solution (4% DMSO solution). 5 μL of the drug solution or a control solution (4% DMSO-assay buffer), 5 μL of the substrate mixture solution, and 10 μL of the enzyme solution were mixed in the wells of a polypropylene 384-well plate and allowed to react at room temperature for 1 hour, and then the reaction was quenched by adding 60 μL of the termination buffer included in the kit. Subsequently, the quantities of the substrates (S) and the phosphorylated substrate (P) in the reaction solution were measured using LabChip EZ Reader II system (manufactured by Caliper Life Sciences) according to the protocol of the assay kit.
The heights of the peaks of the “substrate” and the “phosphorylated substrate” were expressed as S and P, respectively, and a blank containing the assay buffer instead of the enzyme solution was also measured.
The inhibition rate (%) of the test compound was calculated according to the following equation:
Inhibition rate (%)=(1−(C−A)/(B−A))×100 • wherein, A, B, and C represent P/(P+S) of the blank well, P/(P+S) of the control solution well, and P/(P+S) of the compound-containing well, respectively.
The IC50 value was calculated via a regression analysis of the inhibition rate and the test compound concentration (logarithmic value).
The inhibiting activities of representative compounds of the present invention are shown against DYRK1A, DYRK1B, DYRK2, and DYRK3 in Tables.

DYRK3 = molecular target: T4, DYRK3 (Homo sapiens, UniProt O43781); assay: Inhibition test on activity of DYRK family, mobility shift assay (MSA): DYRK3; details: MSA, FITC-labeled DYRKtide peptide, ATP 20 μM; read-out: Inhibitory activity DYRK 3 (IC50 class)
T4 construct: purchased Carna Biosciences, Inc. 04-133
T4 sequence (O43781 1-568 isoform O43781-2): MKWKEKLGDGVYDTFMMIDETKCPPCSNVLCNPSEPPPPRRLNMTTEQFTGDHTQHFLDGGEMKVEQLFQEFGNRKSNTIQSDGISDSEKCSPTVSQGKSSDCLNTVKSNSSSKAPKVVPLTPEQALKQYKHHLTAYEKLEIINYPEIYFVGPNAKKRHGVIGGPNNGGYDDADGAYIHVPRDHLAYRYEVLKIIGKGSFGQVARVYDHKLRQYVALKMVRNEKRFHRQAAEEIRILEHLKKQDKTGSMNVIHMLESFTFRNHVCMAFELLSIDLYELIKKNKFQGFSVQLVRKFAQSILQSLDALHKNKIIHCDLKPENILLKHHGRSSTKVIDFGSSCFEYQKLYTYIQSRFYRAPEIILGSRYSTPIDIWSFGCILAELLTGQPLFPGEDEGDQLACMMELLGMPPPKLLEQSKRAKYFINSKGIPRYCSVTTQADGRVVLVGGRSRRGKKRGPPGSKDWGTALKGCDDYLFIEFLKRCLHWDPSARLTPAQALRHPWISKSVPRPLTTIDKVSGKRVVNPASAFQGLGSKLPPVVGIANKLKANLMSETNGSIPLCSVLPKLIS
Procedure, shortened: as §1

T3 sequence (Q9Y463 whole entry): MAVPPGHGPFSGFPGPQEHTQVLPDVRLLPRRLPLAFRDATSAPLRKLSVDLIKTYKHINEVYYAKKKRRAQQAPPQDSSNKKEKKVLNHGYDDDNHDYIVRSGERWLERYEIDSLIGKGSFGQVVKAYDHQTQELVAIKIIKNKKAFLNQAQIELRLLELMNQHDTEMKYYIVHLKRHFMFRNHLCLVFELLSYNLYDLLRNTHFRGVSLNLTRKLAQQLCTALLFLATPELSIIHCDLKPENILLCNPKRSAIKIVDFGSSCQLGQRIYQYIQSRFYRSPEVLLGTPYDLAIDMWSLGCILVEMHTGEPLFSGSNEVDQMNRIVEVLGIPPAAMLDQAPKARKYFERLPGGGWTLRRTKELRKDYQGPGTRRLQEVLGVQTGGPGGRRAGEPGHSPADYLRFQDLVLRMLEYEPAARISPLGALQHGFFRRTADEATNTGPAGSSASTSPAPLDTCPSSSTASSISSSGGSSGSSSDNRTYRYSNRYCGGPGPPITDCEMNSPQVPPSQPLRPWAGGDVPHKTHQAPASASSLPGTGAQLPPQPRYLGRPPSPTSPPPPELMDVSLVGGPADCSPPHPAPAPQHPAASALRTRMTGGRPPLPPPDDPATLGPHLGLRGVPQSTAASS

| IC50 (DYRK2) [nM] | IC50 (DYRK1A) [nM] | IC50 (DYRK1B) [nM] | IC50 (DYRK3) [nM] | Compound |
| --- | --- | --- | --- | --- |
| 10 to 100 | < 10 | 10 to 100 | 10 to 100 | O=C1N[C@H]2CO[C@H](CF)[C@H]2N1c1nc2c3c(ccc2s1)OCC3 [Example 159, (3aR,6S,6aS)-1-(7,8-dihydrofuro[3,2-e][1,3]benzothiazol-2-yl)-6-(fluoromethyl)tetrahydro-1H-furo[3,4-d]imidazol-2(3H)-one] |
| ≥ 1000 | 100 to 1000 | 100 to 1000 | ≥ 1000 | C[C@@H]1C[C@@H]2[C@H](CO1)NC(=O)N2c1nc2c3c(ccc2s1)OCC3 [Example 160] |
| 10 to 100 | 10 to 100 | 10 to 100 | 100 to 1000 | C[C@H]1OC[C@@H]2NC(=O)N(c3nc4c5c(ccc4s3)OCC5)[C@@H]21 [Example 161, (3aR,6R,6aS)-1-(7,8-Dihydrofuro[3,2-e][1,3]benzothiazol-2-yl)-6-methyltetrahydro-1H-furo[3,4-d]imidazol-2(3H)-one] |
